Legend:
Format in all cases: physicochemical
[1] = UV-Vis absorption (absorption maximum, extinction coefficient)
Method: (§1) Depending on the basic structure and substitution, the absorption maxima lie in the entire range of visible light, with a focus at 500-530 nm. The compounds show a high Stokes shift in the range of 80 nm. The absorption is measured, for example, at 25° C. in aqueous or ethanolic solutions with an extinction of 1.0 using a Specord 205 from Analytik Jena, wherein the aqueous solutions are preferably phosphate-buffered salt solutions (PBS buffer; approx. 100 mM sodium chloride and 100 mM total phosphate) and have a pH of 7.5. For example, the emission is measured at 25° C. in dilute aqueous or ethanolic solutions with an extinction of 0.1 using a FP-6600 spectrofluorometer from Jasco, wherein the dilute aqueous solutions are preferably phosphate-buffered salt solutions (PBS buffer; about 100 mM sodium chloride and 100 mM total phosphate) and have a pH of 7.5.

[2] = Fluorescence emission (emission maximum)
Method: as §1

[3] = Fluorescence quantum yield
Method: Preferably, the fluorescence quantum yield of a compound according to the invention is 0.1 to 0.95, more preferably 0.5 to 0.9. Fluorescence quantum yields are preferably determined at 25° C. in dilute aqueous or ethanolic solutions with an extinction of 0.1 using a Hamamatsu Absolute Photoluminescence Quantum Yield Measurement System C-9920, wherein the dilute aqueous solutions are preferably phosphate-buffered salt solutions (PBS buffer; about 100 mM sodium chloride and 100 mM total phosphate) and have a pH of 7.5. The compounds thus complement the already commercially available dyes with high Stokes Shift or represent better fluorescent alternatives.

[4] = Fluorescence emission (emission maximum); remark: listed apart in the source

ε ([1]; UV-Vis in PBS) | λmax ([1]; UV-Vis in PBS) | ε ([1]; UV-Vis in ethanol) | λmax ([1]; UV-Vis in ethanol) | λem ([2]; in PBS) | λem ([2]; in ethanol) | QY ([3]; in PBS) | QY ([3]; in ethanol) | λem ([4]; in buffer pH 9) | λmax ([1]; UV-Vis in buffer pH 9) | λem ([4]; in buffer pH 5) | ε ([1]; UV-Vis in buffer pH 5) | λmax ([1]; UV-Vis in buffer pH 5) | SMILES
– | 409 nm | – | – | 485 nm | – | – | – | 536 nm | 462 nm | – | – | – | CC1(C)CC(=O)C(S(=O)(=O)[O-])=C2Oc3cc(O)ccc3C=C21.[Na+] [Compound 39, 6-hydroxy-1,1-dimethyl-3-oxo-2H-xanthene-4-sulfonate Sodium Salt]
13,000 l/mol*cm | 472 nm | – | – | 573 nm | – | – | – | – | – | 600 nm | 13300 L/mol/cm | 523 nm | CCN(CCCCCC(=O)O)c1ccc2c(c1)OC1=C(c3ccncc3)C(=O)CC(C)(C)C1=C2 [Compound 44, 6-[[8,8-dimethyl-6-oxo-5-(4-pyridyl)-7H-xanthene-3-yl]-ethyl-amino]hexanoic Acid]
15000 L/mol/cm | 470 nm | – | – | 570 nm | – | – | – | – | – | 594 nm | 15400 L/mol/cm | 524 nm | CC1(C)CC(=O)C(c2ccncc2)=C2Oc3cc(N(CCCCCC(=O)O)CCCS(=O)(=O)[O-])ccc3C=C21.[Na+] [Compound 45, 3-[5-carboxypentyl-[8,8-dimethyl-6-oxo-5-(4-pyridyl)-7H-xanthene-3-yl]amino]propane-1-sulfonate Sodium Salt]

Second part, the compound before the results:

SMILES | ε ([1]; UV-Vis in PBS) | λmax ([1]; UV-Vis in PBS) | ε ([1]; UV-Vis in ethanol) | λmax ([1]; UV-Vis in ethanol) | λem ([2]; in PBS) | λem ([2]; in ethanol) | QY ([3]; in PBS) | QY ([3]; in ethanol) | λem ([4]; in buffer pH 9) | λmax ([1]; UV-Vis in buffer pH 9) | λem ([4]; in buffer pH 5) | ε ([1]; UV-Vis in buffer pH 5) | λmax ([1]; UV-Vis in buffer pH 5)
CCN(CCCCCC(=O)O)c1ccc2cc3c([o+]c2c1)C=C(N(C)c1ccc(S(=O)(=O)[O-])cc1)CC3(C)C [Compound 12, 4-[[6-[5-carboxypentyl(ethyl)amino]-1,1-dimethyl-2H-xanthene-10-ium-3-yl]-methyl-amino]benzenesulfonate] | 45,000 l/mol*cm | 532 nm | 50,000 l/mol*cm | 533 nm | 619 nm | 610 nm | 0.26 | 0.51 | – | – | – | – | –
CCN(CCCCCC(=O)O)c1ccc2cc3c([o+]c2c1)C(S(=O)(=O)[O-])=C(Nc1ccc(S(=O)(=O)[O-])cc1)CC3(C)C.[Na+] [Compound 14, 6-[5-carboxypentyl(ethyl)amino]-1,1-dimethyl-3-(4-sulfonatoanilino)-2H-xanthene-10-ium-4-sulfonate Sodium Salt] | 40,100 l/mol*cm | 545 nm | 45,300 l/mol*cm | 542 nm | 625 nm | 616 nm | 0.11 | 0.61 | – | – | – | – | –
CC1=CC(C)(C)N(CCCS(=O)(=O)[O-])c2cc3[o+]c4c(cc3cc21)C(C)(C)CC(N(C)CCCC(=O)O)=C4 [Compound 23, 3-[9-[3-carboxypropyl(methyl)amino]-2,2,4,7,7-pentamethyl-8H-chromeno[3,2-g]quinolin-11-ium-1-yl]propane-1-sulfonate] | 45,400 l/mol*cm | 527 nm | 55,000 l/mol*cm | 542 nm | 600 nm | 600 nm | 0.58 | 0.88 | – | – | – | – | –
CCN(CCCCCC(=O)O)c1ccc2c(c1)OC1=C(S(=O)(=O)[O-])C(=O)CC(C)(C)C1=C2.[Na+] [Compound 36, 6-[5-carboxypentyl(ethyl)amino]-1,1-dimethyl-3-oxo-2H-xanthene-4-sulfonate Sodium Salt] | 30,100 l/mol*cm | 482 nm | 25,000 l/mol*cm | 446 nm | 565 nm | 542 nm | 0.66 | 0.90 | – | – | – | – | –
CC1(C)CC(=O)C(S(=O)(=O)[O-])=C2Oc3cc(N(CCCCCC(=O)O)CCCS(=O)(=O)[O-])ccc3C=C21.[Na+].[Na+] [Compound 38, 6-[5-carboxypentyl(3-sulfonatopropyl)amino]-1,1-dimethyl-3-oxo-2H-xanthene-4-sulfonate di-sodium SALT] | 28,000 l/mol*cm | 479 nm | 31,000 l/mol*cm | 463 nm | 557 nm | 544 nm | 0.78 | 0.91 | – | – | – | – | –
